Source: the supplement of paper PMC6045584
± gives the standard deviation of the averaged measurements.

Tests used:
OSI-906 = compound: C[C@]1(O)C[C@@H](c2nc(-c3ccc4ccc(-c5ccccc5)nc4c3)c3c(N)nccn32)C1 [OSI-906]; test: area under dose-response curve of surviving fraction (unscaled, Aref=0) (surviving fraction x log10(nM)); higher = more resistant; details: exposure time: 5 days; dose range 0.5-1000 nM
Procedure, shortened: (§1)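 Each tumour cell line was screened three times in 384-well plates, receiving eight inhibitor concentrations from 0.5 to 1000 nM for five days. CellTiter-Glo luminescence gave viability, normalised to DMSO-only wells. Using the drc R package, surviving fractions were fitted with 3-parameter logistic dose-response curves, and the unscaled activity area over log10 dose (Aref = 0) was taken as the area under the curve.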

GEFITINIB = compound: COc1cc2ncnc(Nc3ccc(F)c(Cl)c3)c2cc1OCCCN1CCOCC1 [GEFITINIB]; test: as above; details: exposure time: 5 days; dose range 0.5-1000 nM
Procedure, shortened: as §1

CAMPTOTHECIN = compound: CC[C@@]1(O)C(=O)OCc2c1cc1n(c2=O)Cc2cc3ccccc3nc2-1 [CAMPTOTHECIN]; test: as above; details: exposure time: 5 days; dose range 0.5-1000 nM
Procedure, shortened: as §1

PACLITAXEL = compound: CC(=O)O[C@H]1C(=O)[C@@]2(C)[C@H]([C@H](OC(=O)c3ccccc3)[C@]3(O)C[C@H](OC(=O)[C@H](O)[C@@H](NC(=O)c4ccccc4)c4ccccc4)C(C)=C1C3(C)C)[C@]1(OC(C)=O)CO[C@@H]1C[C@@H]2O [PACLITAXEL]; test: as above; details: exposure time: 5 days; dose range 0.5-1000 nM
Procedure, shortened: as §1

CARBOPLATIN = compound: O=C(O)C1(C(=O)O)CCC1.[NH2-].[NH2-].[Pt+2] [CARBOPLATIN]; test: as above; details: exposure time: 5 days; dose range 0.5-1000 nM
Procedure, shortened: as §1

CELECOXIB [1] = compound: T1, Cc1ccc(-c2cc(C(F)(F)F)nn2-c2ccc(S(N)(=O)=O)cc2)cc1 [CELECOXIB]; test: as above; details: exposure time: 5 days; dose range 0.5-1000 nM
Procedure, shortened: as §1

[2] = compound: CC(=O)c1c(C)c2cnc(Nc3ccc(N4CCNCC4)cn3)nc2n(C2CCCC2)c1=O; test: as above; details: exposure time: 5 days; dose range 0.5-1000 nM
Procedure, shortened: as §1

YM155 = compound: COCC[n+]1c2c(n(Cc3cnccn3)c1C)C(=O)c1ccccc1C2=O [YM155]; test: as above; details: exposure time: 5 days; dose range 0.5-1000 nM
Procedure, shortened: as §1

[3] = compound: CC(=O)NCC(=O)N1[C@@H]2CC[C@H]1c1ccc(Nc3ncc(C(F)(F)F)c(NC4CCC4)n3)cc12; test: as above; details: exposure time: 5 days; dose range 0.5-1000 nM
Procedure, shortened: as §1

CELECOXIB [4] = compound: T1, CELECOXIB; test: surviving fraction relative to DMSO-only wells; higher = less growth inhibition; details: exposure time: 5 days
Procedure, shortened: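 Surviving fraction is CellTiter-Glo luminescence divided by the median of wells given DMSO only. For this, log-phase tumour cell lines went into 384-well plates at 250–500 cells per well and, 24 hours later, into five days of continuous inhibitor exposure at 0.5, 1, 5, 10, 50, 100, 500 and 1000 nM. Lines were screened three times and retained only if replicate Pearson r >0.7 and median Z' >0.3.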

Row | Test System | area under dose-response curve (OSI-906) | area under dose-response curve (GEFITINIB) | area under dose-response curve (CAMPTOTHECIN) | area under dose-response curve (PACLITAXEL) | area under dose-response curve (CARBOPLATIN) | area under dose-response curve (CELECOXIB [1]) | area under dose-response curve [2] | area under dose-response curve (YM155) | area under dose-response curve [3] | surviving fraction (CELECOXIB [4]; 0.5 nM) | surviving fraction (CELECOXIB [4]; 1 nM) | surviving fraction (CELECOXIB [4]; 5 nM) | surviving fraction (CELECOXIB [4]; 10 nM) | surviving fraction (CELECOXIB [4]; 50 nM) | surviving fraction (CELECOXIB [4]; 100 nM) | surviving fraction (CELECOXIB [4]; 500 nM) | surviving fraction (CELECOXIB [4]; 1000 nM)
1 | SCC90 HEADNECK | 3.1 | 2.63 | 1.77 | 1.1 | 3.68 | 3.43 | 3.7 | 2.17 | 2.52 | 0.978 ± 0.063 | 1.09 ± 0.13 | 1.09 ± 0.11 | 1.01 ± 0.077 | 1.13 ± 0.11 | 1.01 ± 0.077 | 0.93 ± 0.048 | 1.01 ± 0.15
2 | HU09 BONE | 2.66 | 3.37 | 0.747 | 0.426 | 3.58 | 3.26 | 3.47 | 2.13 | 2.44 | 1 ± 0.092 | 0.961 ± 0.061 | 1.08 ± 0.027 | 1.03 ± 0.13 | 1.04 ± 0.05 |  | 0.952 ± 0.18 | 0.846 ± 0.02
3 | CAL51 BREAST | 3.16 | 3.42 | 1.36 | 0.546 | 3.33 | 3.45 | 3.21 | 0.772 | 2.15 | 1.03 ± 0.023 | 1.04 ± 0.056 | 0.991 ± 0.026 | 0.998 ± 0.08 | 1.07 ± 0.027 | 1.11 ± 0.03 | 1.07 ± 0.021 | 1.05 ± 0.064
4 | MDAMB468 BREAST | 3.08 | 3.08 | 1.41 | 0.701 | 3.37 | 3.83 | 3.48 | 0.87 | 2.44 | 1.05 ± 0.043 | 1.05 ± 0.097 | 1.16 ± 0.054 | 1.17 ± 0.11 | 1.2 ± 0.12 | 1.19 ± 0.071 | 1.22 ± 0.046 | 1.2 ± 0.098
5 | G292 BONE | 2.59 | 3.36 | 1.35 | 0.722 | 3.42 | 3.34 | 3.05 | 1.47 | 2.24 | 1.03 ± 0.028 | 1.02 ± 0.05 | 1.03 ± 0.039 | 1 ± 0.057 | 1.04 ± 0.02 | 1.02 ± 0.047 | 0.996 ± 0.045 | 0.964 ± 0.076
6 | MDAMB231 BREAST | 3.07 | 3.4 | 1.62 | 0.557 | 3.32 | 3.3 | 3.24 | 0.671 | 2.51 | 0.973 ± 0.02 | 1 ± 0.015 | 0.985 ± 0.018 | 1 ± 0.015 | 1.01 ± 0.02 | 1.04 ± 0.012 | 1.04 ± 0.03 | 1.02 ± 0.033
